{"source": "paper PMC12192727", "about": "“Strategies to Develop Na,K-ATPase-α4 Inhibitors as Male Contraceptives” (International Journal of Molecular Sciences, 2025)", "key": {"[1]": {"system": "mouse sperm", "assay": "Mouse sperm total motility in vitro (CASA)", "type": "cell-based", "settings": "for Emax: Mus musculus, Sperm, 1 h, nanomolar range concentration, read-out: Maximal Motility Inhibition (%)", "experimental": "To characterize the SAR of these compounds, we first evaluated their effects on total sperm motility in vitro. Sperm isolated from the cauda epididymis of mice were incubated with the test compounds in modified Whitten’s medium under non-capacitating conditions. Motility was assessed using a computer-assisted sperm analysis (CASA) system.\nAll experimental protocols involving animals used in this work were approved by the University of Kansas Medical Center Institutional Animal Care and Use Committee (ACUP number: 22-09-26, 10/2022). C57BL/6 mice were purchased from Harlan (Indianapolis, IN, USA). Spermatozoa were isolated from the cauda of adult mouse epididymis in Whitten’s medium, containing 100 mM NaCl, 4.7 mM KCl, 1.2 mM KH2PO4, 1.2 mM MgSO4, 5.5 mM glucose, 0.8 mM pyruvic acid, 4.8 mM lactic acid, and 40 mM Hepes, as previously described.\nSpermatozoa (1 × 10^6 cells) were incubated at 37 °C in 100 μL of Whitten’s medium, with the addition of 1.7 mM CaCl2 and in the absence and presence of different amounts of the tested compounds for 60 min. Then, cells were labeled with the fluorescent nucleic acid stain SYTO 21, which allows for the tracking of the movement of the cell head. After 1 min of incubation with the dye, 5.5 μL aliquots from each sample were taken and placed into a glass cell chamber (Leja Products B.V., Nieuw-Vennep, The Netherlands). Sperm were maintained at 37 °C on a heated platform and viewed with an Olympus BX51 microscope (Olympus, Center Valley, PA, USA) through a 20× phase objective. Images of the moving sperm were captured using a CCD camera. Samples were analyzed by CASA using the Minitube SpermVision Digital Semen Evaluation system (version 3.5; Penetrating Innovations, Verona, WI, USA). An average of 200 cells/field were captured, at a rate of 30 frames per field, and a total of 10 fields in each sample were analyzed. Total sperm motility was obtained from sperm maintained in a non-capacitating medium, while for assessing the hyperactive pattern of motility, typical of sperm capacitation, cells were incubated in Whitten’s medium with the addition of 1.7 mM CaCl2, 25 mM sodium bicarbonate, and 0.5% bovine serum albumin.\n(§1) Figure 2 Effect of simplified steroidal analogs on mouse sperm total motility. Sperm was isolated from the cauda epididymis and treated in the absence and presence of the indicated concentrations of each compound. After one hour of incubation, sperm motility was determined by CASA. Values are expressed as the mean ± SEM of three determinations.\nas §1, with “4” for “2”, “non-steroidal small compounds” for “simplified steroidal analogs”, “1 h” for “one hour”"}, "[2]": {"molecular_target": "T1, NKAα1 (Rattus norvegicus, UniProt P06685)", "T1 construct": "made in house; host or cells: Sf9 insect cells (baculovirus infection), cell homogenates", "assay": "Na,K-ATPase activity assay, α1β1 expressed in Sf9 insect cells", "type": "biochemical", "settings": "read-out: NKA Isoform Specificity (IC50 M) NKAα1", "experimental": "The NKA α1 and α4 isoforms were expressed in Sf9 insect cells as previously described. Briefly, cells were cultured in suspension at 27 °C in Grace’s medium (JRH Biosciences, Lenexa, KS, USA) with 3.3 g/L of lactalbumin hydrolysate and 3.3 g/L of yeastolate and supplemented with 10% (v/v) fetal bovine serum, 100 units/mL of penicillin, 100 μg/mL of streptomycin, and 0.25 μg/mL of fungizone. For infections, cells were placed on 150 mm Petri dishes and infected with baculoviruses coding for the NKA α1β1 and α4β1 isozymes. Three days after infection, cells were scraped from the culture plates, centrifuged at 1500× g for 10 min, and washed twice in 10 mM imidazole hydrochloride (pH 7.5) and 1 mM EGTA (suspension buffer). Cells were then placed in a suspension buffer plus the addition of 0.32 M sucrose and stored at −20 °C or directly used for assays.\nThe Na,K-ATPase activity of insect cell homogenates was determined by measuring the initial rate of release of ^32Pi from γ[^32P]-ATP as described. […] Enzymatic activity was determined as the difference in ATP hydrolysis in the absence and presence of 1 mM ouabain.\nFigure 6 Selectivity of 13 and 45 on NKAα4 over the NKAα1 isoform. […] The hydrolysis of ATP in the presence of saturating concentrations of Na^+, K^+, and Mg^2+ was measured using γ[^32P]-ATP. […]"}, "[3]": {"settings": "simplified steroid analogs, mouse sperm motility"}}, "note": "Where two headings read alike, the source gives them in different places."}
{"compound": "C[C@]12CC[C@H]3[C@@H](CC=C4C[C@@H](O)CC[C@@]43C)[C@@H]1CC[C@@H]2c1cn(Cc2ccccc2)nn1", "note": "[Compound 13, (3S,8S,9S,10R,13S,14S,17S)-17-(1-Benzyl-1H-1,2,3-triazol-4-yl)-10,13-dimethyl-2,3,4,7,8,9,10,11,12,13,14,15,16,17-tetradecahydro-1H-cyclopenta[a]phenanthren-3-ol]", "values": [{"measurement": "Emax", "setting": "[1]; simplified steroid analogs, mouse sperm total motility", "result": 41, "unit": "%"}, {"measurement": "Shape of inhibitory dose response on sperm motility", "setting": "[1]; mouse sperm total motility", "result": "monotonic inhibitory response"}, {"measurement": "IC50", "setting": "[1]; [3]", "result": 0.024, "unit": "nM"}, {"measurement": "IC50 (pM)", "setting": "[1]; [3]", "result": "sub-nanomolar range"}, {"measurement": "IC50", "setting": "[2]", "result": "> 100", "unit": "µM"}]}
{"compound": "CC12CCC(=O)C=C1CCCC2n1cc(-c2ccccc2)nn1", "note": "(centres unmarked) [Compound 45, 4a-Methyl-5-(4-phenyl-1H-1,2,3-triazol-1-yl)-4,4a,5,6,7,8-hexahydronaphthalen-2(3H)-one]", "values": [{"measurement": "Emax", "setting": "[1]; non-steroidal small molecules, mouse sperm total motility", "result": "~50", "unit": "%"}, {"measurement": "IC50", "setting": "[1]; non-steroidal small molecules, mouse sperm motility", "result": 0.048, "unit": "nM"}, {"measurement": "IC50", "setting": "[2]", "result": "> 100", "unit": "µM"}]}
